Structures can show the parent of a compound that is named as a salt.
How the values were obtained:
Experiment in all cases: cells
Type in all cases: functional, cell-based, Homo sapiens
[1] = system: NCI-H1436;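 also: growth suppression of human NCI-H1436 cells, determined with a cell viability readout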
Description: SANGER: Inhibition of human NCI-H1436 cell growth in a cell viability assay.

[2] = system: MKN-28;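 also: cell viability assay read-out, IC50 reflects suppression of growth of human MKN-28 cells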
Description: SANGER: Inhibition of human MKN28 cell growth in a cell viability assay.

[3] = system: HOP-92;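 also: cell viability readout, with IC50 reflecting inhibition of HOP-92 cell growth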
Description: SANGER: Inhibition of human HOP-92 cell growth in a cell viability assay.

[4] = system: YKG-1;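 also: cell growth inhibition, read out with a viability assay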
Description: SANGER: Inhibition of human YKG-1 cell growth in a cell viability assay.

[5] = system: ABC-1;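 also: growth inhibition of human ABC-1 cells, read out by a cell viability assay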
Description: SANGER: Inhibition of human ABC-1 cell growth in a cell viability assay.

[6] = system: CAL-33;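 also: growth inhibition of CAL-33 cells, read out with a cell viability assay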
Description: SANGER: Inhibition of human CAL-33 cell growth in a cell viability assay.

[7] = system: SK-MEL-24;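 also: growth inhibition read out by a cell viability assay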
Description: SANGER: Inhibition of human SK-MEL-24 cell growth in a cell viability assay.

[8] = system: RPMI-2650
Description: SANGER: Inhibition of human RPMI-2650 cell growth in a cell viability assay.

[9] = system: SR
Description: SANGER: Inhibition of human SR cell growth in a cell viability assay.

[10] = system: NCI-H2052;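 also: growth inhibition of NCI-H2052 cells, read out with a cell viability assay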
Description: SANGER: Inhibition of human NCI-H2052 cell growth in a cell viability assay.

[11] = system: NCI-H1694;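 also: cell viability assay measuring inhibition of growth in human NCI-H1694 cells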
Description: SANGER: Inhibition of human NCI-H1694 cell growth in a cell viability assay.

[12] = system: TYK-nu;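 also: growth inhibition of human TYK-nu cells, read out by a cell viability assay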
Description: SANGER: Inhibition of human TYK-nu cell growth in a cell viability assay.

[13] = system: GP5d;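 also: growth inhibition of human GP5d cells, read out with a cell viability assay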
Description: SANGER: Inhibition of human GP5d cell growth in a cell viability assay.

[14] = system: MHH-CALL-2;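 also: growth inhibition of the cell line, read out in a cell viability assay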
Description: SANGER: Inhibition of human MHH-CALL-2 cell growth in a cell viability assay.

[15] = system: NCI-H524;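 also: growth inhibition of human NCI-H524 cells, read out through a cell viability assay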
Description: SANGER: Inhibition of human NCI-H524 cell growth in a cell viability assay.

[16] = system: NCI-H1755;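 also: cell viability readout used to measure growth inhibition of NCI-H1755 cells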
Description: SANGER: Inhibition of human NCI-H1755 cell growth in a cell viability assay.

[17] = system: RO82-W-1;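 also: growth inhibition of human RO82-W-1 cells, measured with a cell viability assay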
Description: SANGER: Inhibition of human RO82-W-1 cell growth in a cell viability assay.

[18] = system: EFO-27;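 also: growth inhibition of EFO-27 cells, read out with a cell viability assay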
Description: SANGER: Inhibition of human EFO-27 cell growth in a cell viability assay.

[19] = system: NCI-H441;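 also: growth inhibition of NCI-H441 cells, read out with a cell viability assay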
Description: SANGER: Inhibition of human NCI-H441 cell growth in a cell viability assay.

[20] = system: CAL-120;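 also: cell growth inhibition, read out as cell viability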
Description: SANGER: Inhibition of human CAL-120 cell growth in a cell viability assay.

[21] = system: M059J;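 also: growth inhibition of M059J cells, read out with a cell viability assay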
Description: SANGER: Inhibition of human M059J cell growth in a cell viability assay.

[22] = system: BFTC-905
Description: SANGER: Inhibition of human BFTC-905 cell growth in a cell viability assay.

[23] = system: PANC-08-13;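 also: cell growth inhibition, measured with a cell viability assay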
Description: SANGER: Inhibition of human PANC-08-13 cell growth in a cell viability assay.

[24] = system: COLO-678
Description: SANGER: Inhibition of human COLO-678 cell growth in a cell viability assay.

[25] = system: NCI-H2009;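 also: cell viability assay measuring inhibition of NCI-H2009 cell growth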
Description: SANGER: Inhibition of human NCI-H2009 cell growth in a cell viability assay.

[26] = system: HuP-T4;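 also: cell viability assay measuring how much HuP-T4 cell growth is inhibited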
Description: SANGER: Inhibition of human HuP-T4 cell growth in a cell viability assay.

[27] = system: Calu-3;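 also: growth inhibition of human Calu-3 cells, determined with a cell viability assay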
Description: SANGER: Inhibition of human Calu-3 cell growth in a cell viability assay.

[28] = system: NCI-H292;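 also: growth inhibition of NCI-H292 cells, read out with a cell viability assay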
Description: SANGER: Inhibition of human NCI-H292 cell growth in a cell viability assay.

[29] = system: UMC-11;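 also: growth inhibition of UMC-11 cells, read out with a cell viability assay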
Description: SANGER: Inhibition of human UMC-11 cell growth in a cell viability assay.

[30] = system: SNU-387
Description: SANGER: Inhibition of human SNU-387 cell growth in a cell viability assay.

[31] = system: U-118-MG
Description: SANGER: Inhibition of human U-118-MG cell growth in a cell viability assay.

[32] = system: ACHN;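 also: cell viability read-out used to gauge how strongly growth of human ACHN cells is suppressed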
Description: SANGER: Inhibition of human ACHN cell growth in a cell viability assay.

[33] = system: Daudi;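 also: growth inhibition of Daudi cells, read out by a viability assay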
Description: SANGER: Inhibition of human Daudi cell growth in a cell viability assay.

[34] = system: HuP-T3;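 also: HuP-T3 cell growth inhibition, read out with a cell viability assay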
Description: SANGER: Inhibition of human HuP-T3 cell growth in a cell viability assay.

[35] = system: SW-620;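 also: growth inhibition of human SW-620 cells, measured by a cell viability assay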
Description: SANGER: Inhibition of human SW620 cell growth in a cell viability assay.

[36] = system: COLO-741
Description: SANGER: Inhibition of human COLO-741 cell growth in a cell viability assay.

[37] = system: RVH-421
Description: SANGER: Inhibition of human RVH-421 cell growth in a cell viability assay.

[38] = system: SAOS-2;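 also: growth inhibition of human Saos-2 cells determined by a cell viability assay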
Description: SANGER: Inhibition of human Saos-2 cell growth in a cell viability assay.

[39] = system: NCI-H2170;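 also: cell viability assay measuring growth inhibition of human NCI-H2170 cancer cells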
Description: SANGER: Inhibition of human NCI-H2170 cell growth in a cell viability assay.

[40] = system: LP-1;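 also: growth inhibition of human LP-1 cells, with the read-out taken from a cell viability assay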
Description: SANGER: Inhibition of human LP-1 cell growth in a cell viability assay.

[41] = system: HT-3;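 also: growth inhibition measured with a cell viability readout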
Description: SANGER: Inhibition of human HT-3 cell growth in a cell viability assay.

[42] = system: ESS-1;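 also: growth inhibition of human ESS-1 cells, read out by a cell viability assay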
Description: SANGER: Inhibition of human ESS-1 cell growth in a cell viability assay.

[43] = system: NCI-H2452;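 also: growth inhibition of NCI-H2452 cells, read out with a cell viability assay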
Description: SANGER: Inhibition of human NCI-H2452 cell growth in a cell viability assay.

[44] = system: SK-MM-2;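 also: growth inhibition of human SK-MM-2 cells, read out with a cell viability assay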
Description: SANGER: Inhibition of human SK-MM-2 cell growth in a cell viability assay.

[45] = system: C32;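 also: cell viability assay, with IC50 reflecting inhibition of C32 cell growth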
Description: SANGER: Inhibition of human C32 cell growth in a cell viability assay.

[46] = system: TE-441-T
Description: SANGER: Inhibition of human TE-441-T cell growth in a cell viability assay.

[47] = system: Kasumi 1; settings: Homo sapiens, Kasumi 1;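 also: growth inhibition of human Kasumi-1 cells, read out by a cell viability assay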
Description: SANGER: Inhibition of human KASUMI-1 cell growth in a cell viability assay.

O=C(O)c1ccc(-c2c[nH]c3ncc(-c4ccccc4)cc23)cc1C1CCCC1 [GSK-650394]
IC50 ([1]; Homo sapiens, NCI-H1436): > 16 µM | IC50 ([2]; Homo sapiens, MKN-28): 11.7 µM | IC50 ([3]; Homo sapiens, HOP-92): > 16 µM | IC50 ([4]; Homo sapiens, YKG-1): 7.39 µM | IC50 ([5]; Homo sapiens, ABC-1): 6.58 µM | IC50 ([6]; Homo sapiens, CAL-33): 9.96 µM | IC50 ([7]; Homo sapiens, SK-MEL-24): > 16 µM | IC50 ([8]; Homo sapiens, RPMI-2650): > 16 µM | IC50 ([9]; Homo sapiens, SR): > 16 µM | IC50 ([10]; Homo sapiens, NCI-H2052): > 16 µM | IC50 ([11]; Homo sapiens, NCI-H1694): > 16 µM | IC50 ([12]; Homo sapiens, TYK-nu): > 16 µM | IC50 ([13]; Homo sapiens, GP5d): > 16 µM | IC50 ([14]; Homo sapiens, MHH-CALL-2): > 16 µM | IC50 ([15]; Homo sapiens, NCI-H524): > 16 µM | IC50 ([16]; Homo sapiens, NCI-H1755): > 16 µM | IC50 ([17]; Homo sapiens, RO82-W-1): > 16 µM | IC50 ([18]; Homo sapiens, EFO-27): 15.4 µM | IC50 ([19]; Homo sapiens, NCI-H441): > 16 µM | IC50 ([20]; Homo sapiens, CAL-120): > 16 µM | IC50 ([21]; Homo sapiens, M059J): > 16 µM | IC50 ([22]; Homo sapiens, BFTC-905): 0.785 µM | IC50 ([23]; Homo sapiens, PANC-08-13): > 16 µM | IC50 ([24]; Homo sapiens, COLO-678): > 16 µM | IC50 ([25]; Homo sapiens, NCI-H2009): 3.76 µM | IC50 ([26]; Homo sapiens, HuP-T4): 8.5 µM | IC50 ([27]; Homo sapiens, Calu-3): 10.7 µM | IC50 ([28]; Homo sapiens, NCI-H292): > 16 µM | IC50 ([29]; Homo sapiens, UMC-11): > 16 µM | IC50 ([30]; Homo sapiens, SNU-387): > 16 µM | IC50 ([31]; Homo sapiens, U-118-MG): > 16 µM | IC50 ([32]; Homo sapiens, ACHN): 10.8 µM | IC50 ([33]; Homo sapiens, Daudi): > 16 µM | IC50 ([34]; Homo sapiens, HuP-T3): > 16 µM | IC50 ([35]; Homo sapiens, SW-620): 1.93 µM | IC50 ([36]; Homo sapiens, COLO-741): > 16 µM | IC50 ([37]; Homo sapiens, RVH-421): > 16 µM | IC50 ([38]; Homo sapiens, SAOS-2): > 16 µM | IC50 ([39]; Homo sapiens, NCI-H2170): > 16 µM | IC50 ([40]; Homo sapiens, LP-1): > 16 µM | IC50 ([41]; Homo sapiens, HT-3): > 16 µM | IC50 ([42]; Homo sapiens, ESS-1): > 16 µM | IC50 ([43]; Homo sapiens, NCI-H2452): > 16 µM | IC50 ([44]; Homo sapiens, SK-MM-2): > 16 µM | IC50 ([45]; Homo sapiens, C32): > 16 µM | IC50 ([46]; Homo sapiens, TE-441-T): > 16 µM

CN(C)C(=N)NC(=N)N [METFORMIN]
IC50 ([2]; Homo sapiens, MKN-28): > 20000 µM | IC50 ([5]; Homo sapiens, ABC-1): > 20000 µM | IC50 ([6]; Homo sapiens, CAL-33): > 20000 µM | IC50 ([7]; Homo sapiens, SK-MEL-24): > 20000 µM | IC50 ([8]; Homo sapiens, RPMI-2650): > 20000 µM | IC50 ([12]; Homo sapiens, TYK-nu): 16500 µM | IC50 ([13]; Homo sapiens, GP5d): > 20000 µM | IC50 [47]: 378 µM | IC50 ([16]; Homo sapiens, NCI-H1755): > 20000 µM | IC50 ([17]; Homo sapiens, RO82-W-1): > 20000 µM | IC50 ([18]; Homo sapiens, EFO-27): > 20000 µM | IC50 ([19]; Homo sapiens, NCI-H441): > 20000 µM | IC50 ([21]; Homo sapiens, M059J): > 20000 µM | IC50 ([22]; Homo sapiens, BFTC-905): 11700 µM | IC50 ([23]; Homo sapiens, PANC-08-13): > 20000 µM | IC50 ([24]; Homo sapiens, COLO-678): > 20000 µM | IC50 ([27]; Homo sapiens, Calu-3): > 20000 µM | IC50 ([28]; Homo sapiens, NCI-H292): 5870 µM | IC50 ([29]; Homo sapiens, UMC-11): > 20000 µM | IC50 ([30]; Homo sapiens, SNU-387): > 20000 µM | IC50 ([32]; Homo sapiens, ACHN): > 20000 µM | IC50 ([41]; Homo sapiens, HT-3): 8160 µM | IC50 ([42]; Homo sapiens, ESS-1): > 20000 µM | IC50 ([45]; Homo sapiens, C32): > 20000 µM

COC1=CC(c2cc3ccccc3[nH]2)=N/C1=C\c1[nH]c(C)cc1C [OBATOCLAX MESYLATE]
IC50 ([1]; Homo sapiens, NCI-H1436): 1.26 µM | IC50 ([2]; Homo sapiens, MKN-28): 0.177 µM | IC50 ([3]; Homo sapiens, HOP-92): 0.368 µM | IC50 ([4]; Homo sapiens, YKG-1): 0.163 µM | IC50 ([5]; Homo sapiens, ABC-1): 0.505 µM | IC50 ([6]; Homo sapiens, CAL-33): 0.508 µM | IC50 ([7]; Homo sapiens, SK-MEL-24): 0.913 µM | IC50 ([8]; Homo sapiens, RPMI-2650): 0.023 µM | IC50 ([9]; Homo sapiens, SR): < 0.0625 µM | IC50 ([10]; Homo sapiens, NCI-H2052): 0.567 µM | IC50 ([11]; Homo sapiens, NCI-H1694): 0.919 µM | IC50 ([12]; Homo sapiens, TYK-nu): 0.179 µM | IC50 ([13]; Homo sapiens, GP5d): 0.225 µM | IC50 ([14]; Homo sapiens, MHH-CALL-2): 0.609 µM | IC50 ([15]; Homo sapiens, NCI-H524): 9.59 µM | IC50 ([16]; Homo sapiens, NCI-H1755): 5.23 µM | IC50 ([17]; Homo sapiens, RO82-W-1): 2.41 µM | IC50 ([18]; Homo sapiens, EFO-27): 0.34 µM | IC50 ([19]; Homo sapiens, NCI-H441): 0.191 µM | IC50 ([20]; Homo sapiens, CAL-120): 0.296 µM | IC50 ([21]; Homo sapiens, M059J): 1.36 µM | IC50 ([22]; Homo sapiens, BFTC-905): 0.0791 µM | IC50 ([23]; Homo sapiens, PANC-08-13): 1.34 µM | IC50 ([24]; Homo sapiens, COLO-678): 3.38 µM | IC50 ([25]; Homo sapiens, NCI-H2009): 0.347 µM | IC50 ([26]; Homo sapiens, HuP-T4): 0.0412 µM | IC50 ([27]; Homo sapiens, Calu-3): 0.253 µM | IC50 ([28]; Homo sapiens, NCI-H292): 0.176 µM | IC50 ([29]; Homo sapiens, UMC-11): 1.4 µM | IC50 ([30]; Homo sapiens, SNU-387): 0.903 µM | IC50 ([31]; Homo sapiens, U-118-MG): 0.409 µM | IC50 ([32]; Homo sapiens, ACHN): 0.132 µM | IC50 ([33]; Homo sapiens, Daudi): 0.0708 µM | IC50 ([34]; Homo sapiens, HuP-T3): 0.528 µM | IC50 ([35]; Homo sapiens, SW-620): < 0.0625 µM | IC50 ([36]; Homo sapiens, COLO-741): 0.316 µM | IC50 ([37]; Homo sapiens, RVH-421): 0.0167 µM | IC50 ([38]; Homo sapiens, SAOS-2): 0.246 µM | IC50 ([39]; Homo sapiens, NCI-H2170): 0.683 µM | IC50 ([40]; Homo sapiens, LP-1): 0.213 µM | IC50 ([41]; Homo sapiens, HT-3): 1.31 µM | IC50 ([42]; Homo sapiens, ESS-1): 0.0725 µM | IC50 ([43]; Homo sapiens, NCI-H2452): > 16 µM | IC50 ([44]; Homo sapiens, SK-MM-2): 0.577 µM | IC50 ([45]; Homo sapiens, C32): 0.452 µM | IC50 ([46]; Homo sapiens, TE-441-T): 1.43 µM

BLEOMYCIN
IC50 ([1]; nci-h1436): 2770 µM | IC50 ([2]; mkn-28): 0.00108 µM | IC50 ([3]; hop-92): 9.26 µM | IC50 ([4]; ykg-1): 3.26 µM | IC50 ([5]; abc-1): 19.7 µM | IC50 ([6]; cal-33): 2.15 µM | IC50 ([7]; sk-mel-24): 23.3 µM | IC50 ([8]; rpmi-2650): 0.633 µM | IC50 ([9]; sr): 0.0297 µM | IC50 ([10]; nci-h2052): 2.97 µM | IC50 ([11]; nci-h1694): 43.9 µM | IC50 ([12]; tyk-nu): 3.03 µM | IC50 ([13]; gp5d): 15.6 µM | IC50 ([14]; mhh-call-2): 0.535 µM | IC50 ([15]; nci-h524): 190 µM | IC50 ([16]; nci-h1755): 26 µM | IC50 ([17]; ro82-w-1): 339 µM | IC50 ([18]; efo-27): 0.571 µM | IC50 ([19]; nci-h441): 9.05 µM | IC50 ([20]; cal-120): 5.56 µM | IC50 ([21]; m059j): 3.77 µM | IC50 ([22]; bftc-905): 2.32 µM | IC50 ([23]; panc-08-13): 12.1 µM | IC50 ([24]; colo-678): 36.2 µM | IC50 ([25]; nci-h2009): 2.56 µM | IC50 ([26]; hup-t4): 1.31 µM | IC50 ([27]; calu-3): 6.19 µM | IC50 ([28]; nci-h292): 0.803 µM | IC50 ([29]; umc-11): 2360 µM | IC50 ([30]; snu-387): 0.925 µM | IC50 ([31]; u-118-mg): 65.7 µM | IC50 ([32]; achn): 0.375 µM | IC50 ([33]; daudi): 1.67 µM | IC50 ([34]; hup-t3): 4.79 µM | IC50 ([35]; sw-620): 3.56 µM | IC50 ([36]; colo-741): 16.4 µM | IC50 ([37]; rvh-421): 2.57 µM | IC50 ([38]; saos-2): 0.172 µM | IC50 ([39]; nci-h2170): 0.162 µM | IC50 ([40]; lp-1): 307 µM | IC50 ([41]; ht-3): 5.78 µM | IC50 ([42]; ess-1): 0.187 µM | IC50 ([43]; nci-h2452): 2140 µM | IC50 ([44]; sk-mm-2): 23.2 µM | IC50 ([45]; c32): 471 µM | IC50 ([46]; te-441-t): 24.6 µM

Source: ChEMBL document CHEMBL1201861, “Genomics of Drug Sensitity in Cancer screening data, Wellcome Trust Sanger Institute”
